Our source for the IC50 values is ChEMBL document CHEMBL3822389, “New insights into 3-(aminomethyl)naphthoquinones: Evaluation of cytotoxicity, electrochemical behavior and search for structure-activity correlation” (Bioorg Med Chem Lett, 2016).

As usually defined, the IC50 is the concentration that inhibits the measured activity by half.

The subject of assay [1] is MDA-MB-435. Put plainly: Cytotoxicity against human MDA-MB-435 cells after 72 hrs by MTT assay. Type of assay: functional, cell-based. Conditions: Homo sapiens, MDA-MB-435, 72 h. On the technique in general: Formazan colour is commonly taken as a measure of viable cells.
Assay [2] in a line: Cytotoxicity against human HCT8 cells after 72 hrs by MTT assay. The format is functional, cell-based, HCT-8.
Assay [3] in a line: Cytotoxicity against human HL60 cells after 72 hrs by MTT assay. Type of assay: functional, cell-based, HL-60.
A short description of assay [4]: Cytotoxicity against human SF295 cells after 72 hrs by MTT assay. The format is functional, cell-based, SF-295.

Consider `CCCCCCCCCCNC(C1=C(O)C(=O)c2ccccc2C1=O)c1ccccc1O` (configuration not stated), for which the IC50 in assay [1] stood at 30.9 µM; in assay [2] (Homo sapiens, HCT-8, 72 h) it was 32.2 µM; in assay [3] (Homo sapiens, HL-60, 72 h) it was 12.2 µM; in assay [4] (Homo sapiens, SF-295, 72 h), 23.1 µM.
As for `CCCCNC(C1=C(O)C(=O)c2ccccc2C1=O)c1ccc(Cl)cc1Cl` (configuration not stated) [listing 1 of 2 here], the concentration for half-maximal inhibition (IC50) in assay [3] (Homo sapiens, HL-60, 72 h) is above 40 µM; in assay [4] (Homo sapiens, SF-295, 72 h), above 40 µM.
On to `CCCCNC(C1=C(O)C(=O)c2ccccc2C1=O)c1ccccc1O` (configuration not stated), for which the half-inhibitory concentration (IC50) in assay [1] was above 40 µM; in assay [2] (Homo sapiens, HCT-8, 72 h), above 40 µM; in assay [3] (hl-60), above 40 µM; in assay [4] (sf-295), above 40 µM.
Regarding `CCCCCCCCCCNC(C1=C(O)C(=O)c2ccccc2C1=O)c1ccccn1` (configuration not stated), the IC50 in assay [1] was 23.3 µM; in assay [2] (Homo sapiens, HCT-8, 72 h) it was 1.7 µM; in assay [3] (Homo sapiens, HL-60, 72 h), 3.8 µM; in assay [4] (Homo sapiens, SF-295, 72 h), 1.7 µM.
On to `O=C1C(O)=C(C(NCCCCl)c2cccc(O)c2)C(=O)c2ccccc21` (configuration not stated), for which the IC50 is above 40 µM in assay [1]; above 40 µM in assay [2] (Homo sapiens, HCT-8, 72 h); above 40 µM in assay [3] (Homo sapiens, HL-60, 72 h); above 40 µM in assay [4] (Homo sapiens, SF-295, 72 h).
On to `Cc1ccc(NC(C2=C(O)C(=O)c3ccccc3C2=O)c2ccccn2)cc1` (configuration not stated), for which the IC50 in assay [1] was above 40 µM; in assay [2] (Homo sapiens, HCT-8, 72 h) it was above 40 µM; in assay [3] (Homo sapiens, HL-60, 72 h), above 40 µM; in assay [4] (Homo sapiens, SF-295, 72 h), above 40 µM.
As for `O=C1C(O)=C(CNCCCCl)C(=O)c2ccccc21`, the IC50 in assay [1] was above 40 µM; in assay [2] (Homo sapiens, HCT-8, 72 h), above 40 µM; in assay [3] (Homo sapiens, HL-60, 72 h) it was above 40 µM; in assay [4] (Homo sapiens, SF-295, 72 h), above 40 µM.
Turning to `CCCCCCCNC(C1=C(O)C(=O)c2ccccc2C1=O)c1cc(Br)ccc1O` (configuration not stated), the IC50 in assay [1] was above 40 µM; in assay [2] (Homo sapiens, HCT-8, 72 h), above 40 µM; in assay [3] (Homo sapiens, HL-60, 72 h), above 40 µM; in assay [4] (Homo sapiens, SF-295, 72 h), above 40 µM.
As for `CC(C)(C)OC(=O)NCCNC(C1=C(O)C(=O)c2ccccc2C1=O)c1ccc(Cl)cc1Cl` (configuration not stated), the IC50 is above 40 µM in assay [1]; above 40 µM in assay [2] (Homo sapiens, HCT-8, 72 h); above 40 µM in assay [3] (Homo sapiens, HL-60, 72 h); above 40 µM in assay [4] (Homo sapiens, SF-295, 72 h).
Regarding `CCCCCCCNC(C1=C(O)C(=O)c2ccccc2C1=O)c1cccc(O)c1` (configuration not stated), the IC50 in assay [1] was above 40 µM; in assay [2] (Homo sapiens, HCT-8, 72 h) it was above 40 µM; in assay [3] (Homo sapiens, HL-60, 72 h), above 40 µM; in assay [4] (Homo sapiens, SF-295, 72 h), above 40 µM.
For the molecule `CCCCNC(C1=C(O)C(=O)c2ccccc2C1=O)c1cc(Br)ccc1O` (configuration not stated), the IC50 in assay [1], in assay [2] (hct-8), in assay [3] (hl-60) and in assay [4] (sf-295) was above 40 µM each time.
On to `CC(C)(C)OC(=O)NCCCNC(C1=C(O)C(=O)c2ccccc2C1=O)c1cccc(O)c1` (configuration not stated), for which the IC50 in assay [1] was above 40 µM; in assay [2] (Homo sapiens, HCT-8, 72 h), above 40 µM; in assay [3] (Homo sapiens, HL-60, 72 h), above 40 µM; in assay [4] (Homo sapiens, SF-295, 72 h), above 40 µM.
Consider `O=C1C(O)=C(C(NCCCCl)c2cc(Br)ccc2O)C(=O)c2ccccc21` (configuration not stated), for which the IC50 in assay [1] is above 40 µM; in assay [2] (Homo sapiens, HCT-8, 72 h) it was above 40 µM; in assay [3] (Homo sapiens, HL-60, 72 h), 8.4 µM; in assay [4] (Homo sapiens, SF-295, 72 h) it was 28.8 µM.
`O=C1C(O)=C(C(NCc2ccccc2)c2cc(Br)ccc2O)C(=O)c2ccccc21` (configuration not stated): the IC50 in assay [1] was above 40 µM; in assay [2] (Homo sapiens, HCT-8, 72 h), 15.9 µM; in assay [3] (hl-60), 4.9 µM; in assay [4] (sf-295), 10.7 µM.
Turning to `O=C1C(O)=C(C(NCCCCl)c2ccc(Cl)cc2Cl)C(=O)c2ccccc21` (configuration not stated), the IC50 in assay [1] was above 40 µM; in assay [2] (Homo sapiens, HCT-8, 72 h), above 40 µM; in assay [3] (Homo sapiens, HL-60, 72 h), above 40 µM; in assay [4] (Homo sapiens, SF-295, 72 h) it was above 40 µM.
With `O=C1C(O)=C(C(Nc2ccccc2)c2ccccn2)C(=O)c2ccccc21` (configuration not stated), the IC50 is above 40 µM in assay [1]; above 40 µM in assay [2] (Homo sapiens, HCT-8, 72 h); above 40 µM in assay [3] (Homo sapiens, HL-60, 72 h); above 40 µM in assay [4] (Homo sapiens, SF-295, 72 h).
For `CCCCNC(C1=C(O)C(=O)c2ccccc2C1=O)c1ccc(Cl)cc1Cl` (configuration not stated) [listing 2 of 2 here], the IC50 in assay [1] was above 40 µM; in assay [2] (Homo sapiens, HCT-8, 72 h) it was above 40 µM.
For `CCCCNC(C1=C(O)C(=O)c2ccccc2C1=O)c1ccccn1` (configuration not stated), the IC50 in assay [1] is above 40 µM; in assay [2] (Homo sapiens, HCT-8, 72 h), 12.5 µM; in assay [3] (Homo sapiens, HL-60, 72 h), above 40 µM; in assay [4] (Homo sapiens, SF-295, 72 h), 9.5 µM.
Consider `O=C1C(O)=C(C(NCCCCl)c2ccc([N+](=O)[O-])cc2)C(=O)c2ccccc21` (configuration not stated), for which the IC50 in assay [1] is above 40 µM; in assay [2] (Homo sapiens, HCT-8, 72 h), above 40 µM; in assay [3] (Homo sapiens, HL-60, 72 h), above 40 µM; in assay [4] (Homo sapiens, SF-295, 72 h) it was above 40 µM.
As for `CCCCCCCNC(C1=C(O)C(=O)c2ccccc2C1=O)c1ccc(Cl)cc1Cl` (configuration not stated), the IC50 in assay [1] was above 40 µM; in assay [2] (Homo sapiens, HCT-8, 72 h), above 40 µM; in assay [3] (Homo sapiens, HL-60, 72 h) it was 4.5 µM; in assay [4] (Homo sapiens, SF-295, 72 h) it was above 40 µM.
In the case of `O=C1C(O)=C(C(NCc2ccccc2)c2ccccn2)C(=O)c2ccccc21` (configuration not stated), the IC50 in assay [1] was above 40 µM; in assay [2] (Homo sapiens, HCT-8, 72 h), 2.2 µM; in assay [3] (Homo sapiens, HL-60, 72 h) it was 4.8 µM; in assay [4] (Homo sapiens, SF-295, 72 h), 1.3 µM.
As for `CC(C)(C)OC(=O)NCCCNC(C1=C(O)C(=O)c2ccccc2C1=O)c1ccccc1` (configuration not stated), the 50% inhibitory concentration (IC50) in assay [1] is above 40 µM; in assay [2] (Homo sapiens, HCT-8, 72 h) it was above 40 µM; in assay [3] (Homo sapiens, HL-60, 72 h) it was above 40 µM; in assay [4] (Homo sapiens, SF-295, 72 h), above 40 µM.
For the molecule `Cc1ccc(O)c(C(NCc2ccccc2)C2=C(O)C(=O)c3ccccc3C2=O)c1` (configuration not stated), the IC50 was found to be 18.7 µM in assay [1]; 12.1 µM in assay [2] (Homo sapiens, HCT-8, 72 h); 14.4 µM in assay [4] (sf-295).
